Key:
BT-474 Tam1 [1] = assay: drug sensitivity score (DSS) (DSS (dimensionless)); higher = more sensitive; extreme values may be limits of the assay; conditions: 4-OH-tamoxifen in medium 1 µM; 72 h
Outline: (§1)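 After seeding into 384-well plates with library drugs at five concentrations spanning a 10 000-fold range, breast cancer cell lines and their resistant derivatives were incubated 72 h at 37 °C. Resistant lines received medium with 1 μM of the selecting drug. CellTiter-Glo signal was read on a PHERAstar and scaled to vehicle-only and positive controls. Drug sensitivity score, relative IC50 (the curve midpoint) and top-dose inhibition came from logistic fits run in the Breeze pipeline.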

BT-474 Tam2 [2] = assay: as above; conditions: 4-OH-tamoxifen in medium 1 µM; 72 h
Outline: as §1

BT-474 [3] = assay: as above; conditions: 72 h
Outline: as §1

MCF-7 Tam1 = assay: as above; conditions: 4-OH-tamoxifen in medium 1 µM; 72 h
Outline: as §1

MCF-7 [4] = assay: as above; conditions: 72 h
Outline: as §1

T-47D Tam1 [5] = assay: as above; conditions: 4-OH-tamoxifen in medium 1 µM; 72 h
Outline: as §1

T-47D Tam2 [6] = assay: as above; conditions: 4-OH-tamoxifen in medium 1 µM; 72 h
Outline: as §1

T-47D [7] = assay: as above; conditions: 72 h
Outline: as §1

ZR-75-1 Tam1 [8] = assay: as above; conditions: 4-OH-tamoxifen in medium 1 µM; 72 h
Outline: as §1

ZR-75-1 Tam2 [9] = assay: as above; conditions: 4-OH-tamoxifen in medium 1 µM; 72 h
Outline: as §1

ZR-75-1 [10] = assay: as above; conditions: 72 h
Outline: as §1

BT-474 Tam1 [11] = assay: relative IC50 (midpoint of fitted logistic curve, plateau may be below 50% inhibition; CellTiter-Glo viability); higher = less potent; conditions: 4-OH-tamoxifen in medium 1 µM; 72 h
Outline: as §1

BT-474 Tam2 [12] = assay: as above; conditions: 4-OH-tamoxifen in medium 1 µM; 72 h
Outline: as §1

BT-474 [13] = assay: as above; conditions: 72 h
Outline: as §1

MCF-7 [14] = assay: as above; conditions: 72 h
Outline: as §1

T-47D Tam1 [15] = assay: as above; conditions: 4-OH-tamoxifen in medium 1 µM; 72 h
Outline: as §1

T-47D Tam2 [16] = assay: as above; conditions: 4-OH-tamoxifen in medium 1 µM; 72 h
Outline: as §1

T-47D [17] = assay: as above; conditions: 72 h
Outline: as §1

ZR-75-1 Tam1 [18] = assay: as above; conditions: 4-OH-tamoxifen in medium 1 µM; 72 h
Outline: as §1

ZR-75-1 Tam2 [19] = assay: as above; conditions: 4-OH-tamoxifen in medium 1 µM; 72 h
Outline: as §1

ZR-75-1 [20] = assay: as above; conditions: 72 h
Outline: as §1

Structure (SMILES)	relative IC50 (BT-474 Tam1 [11]) [nM]	relative IC50 (BT-474 Tam2 [12]) [nM]	relative IC50 (BT-474 [13]; 4-OH-tamoxifen in medium 0 µM) [nM]	relative IC50 (BT-474 [13]; 4-OH-tamoxifen in medium 1 µM) [nM]	relative IC50 (MCF-7 [14]; 4-OH-tamoxifen in medium 0 µM) [nM]	relative IC50 (MCF-7 [14]; 4-OH-tamoxifen in medium 1 µM) [nM]	relative IC50 (T-47D Tam1 [15]) [nM]	relative IC50 (T-47D Tam2 [16]) [nM]	relative IC50 (T-47D [17]; 4-OH-tamoxifen in medium 0 µM) [nM]	relative IC50 (T-47D [17]; 4-OH-tamoxifen in medium 1 µM) [nM]	drug sensitivity score (BT-474 Tam1 [1])	drug sensitivity score (BT-474 Tam2 [2])	drug sensitivity score (BT-474 [3]; 4-OH-tamoxifen in medium 0 µM)	drug sensitivity score (BT-474 [3]; 4-OH-tamoxifen in medium 1 µM)	drug sensitivity score (MCF-7 Tam1)	drug sensitivity score (MCF-7 [4]; 4-OH-tamoxifen in medium 0 µM)	drug sensitivity score (MCF-7 [4]; 4-OH-tamoxifen in medium 1 µM)	drug sensitivity score (T-47D Tam1 [5])	drug sensitivity score (T-47D Tam2 [6])	drug sensitivity score (T-47D [7]; 4-OH-tamoxifen in medium 0 µM)	drug sensitivity score (T-47D [7]; 4-OH-tamoxifen in medium 1 µM)	drug sensitivity score (ZR-75-1 Tam1 [8])	drug sensitivity score (ZR-75-1 Tam2 [9])	drug sensitivity score (ZR-75-1 [10]; 4-OH-tamoxifen in medium 0 µM)	drug sensitivity score (ZR-75-1 [10]; 4-OH-tamoxifen in medium 1 µM)	relative IC50 (ZR-75-1 Tam1 [18]) [nM]	relative IC50 (ZR-75-1 Tam2 [19]) [nM]	relative IC50 (ZR-75-1 [20]; 4-OH-tamoxifen in medium 0 µM) [nM]	relative IC50 (ZR-75-1 [20]; 4-OH-tamoxifen in medium 1 µM) [nM]
NC1(c2ccc(-c3nc4ccn5c(=O)[nH]nc5c4cc3-c3ccccc3)cc2)CCC1 [MK-2206]	170			335	315	119	101	111	114	177	4.04	0.553	1.68	2.54	2.56	1.67	4.73	5.11	5.54	5.76	2.9	7.57	7.96	6.86	7.22	68.5	78.2	73.6	54.6
CCNC(=O)c1noc(-c2cc(C(C)C)c(O)cc2O)c1-c1ccc(CN2CCOCC2)cc1 [NVP-AUY922]	3.5	10.2	4.12	2.25	6.59	41.2	37.2	10.4	19.9	8.93	22.9	16.8	14.7	26.5	3.94	16.7	7.64	8.46	13.5	14.3	14.1	6.14	9.04	6.75	7.06	22.5	21.1	18.6	40.4
OC[C@H]1O[C@@H](n2cnc3c2N=CNC[C@H]3O)C[C@@H]1O [Pentostatin]	2110				1540	1320	1320	1450	1900		1.97	0.106	0.324	0.0318	0.721	4.26	2.79	4.83	3.19	3.58	2.45	2.62	3.72	4.39	3.83	2930	1310	1580	1140
COc1cc([C@@H]2c3cc4c(cc3[C@@H](O[C@@H]3O[C@@H]5CO[C@@H](c6cccs6)O[C@H]5[C@H](O)[C@H]3O)[C@H]3COC(=O)[C@H]23)OCO4)cc(OC)c1O [Teniposide]	3450		2130	2230	2130		995	1110	306	697	3.14	0.0097	4.07	6.48	0.273	4.14	2.91	8.66	4.73	9.21	4.79	3.15	5.1	4.91	3.3	1600	737	703	1070

Further lines, with some results ahead:

relative IC50 (BT-474 Tam1 [11]) [nM]	relative IC50 (BT-474 Tam2 [12]) [nM]	relative IC50 (BT-474 [13]; 4-OH-tamoxifen in medium 0 µM) [nM]	relative IC50 (BT-474 [13]; 4-OH-tamoxifen in medium 1 µM) [nM]	relative IC50 (MCF-7 [14]; 4-OH-tamoxifen in medium 0 µM) [nM]	relative IC50 (MCF-7 [14]; 4-OH-tamoxifen in medium 1 µM) [nM]	relative IC50 (T-47D Tam1 [15]) [nM]	relative IC50 (T-47D Tam2 [16]) [nM]	relative IC50 (T-47D [17]; 4-OH-tamoxifen in medium 0 µM) [nM]	relative IC50 (T-47D [17]; 4-OH-tamoxifen in medium 1 µM) [nM]	Structure (SMILES)	drug sensitivity score (BT-474 Tam1 [1])	drug sensitivity score (BT-474 Tam2 [2])	drug sensitivity score (BT-474 [3]; 4-OH-tamoxifen in medium 0 µM)	drug sensitivity score (BT-474 [3]; 4-OH-tamoxifen in medium 1 µM)	drug sensitivity score (MCF-7 Tam1)	drug sensitivity score (MCF-7 [4]; 4-OH-tamoxifen in medium 0 µM)	drug sensitivity score (MCF-7 [4]; 4-OH-tamoxifen in medium 1 µM)	drug sensitivity score (T-47D Tam1 [5])	drug sensitivity score (T-47D Tam2 [6])	drug sensitivity score (T-47D [7]; 4-OH-tamoxifen in medium 0 µM)	drug sensitivity score (T-47D [7]; 4-OH-tamoxifen in medium 1 µM)	drug sensitivity score (ZR-75-1 Tam1 [8])	drug sensitivity score (ZR-75-1 Tam2 [9])	drug sensitivity score (ZR-75-1 [10]; 4-OH-tamoxifen in medium 0 µM)	drug sensitivity score (ZR-75-1 [10]; 4-OH-tamoxifen in medium 1 µM)	relative IC50 (ZR-75-1 Tam1 [18]) [nM]	relative IC50 (ZR-75-1 Tam2 [19]) [nM]	relative IC50 (ZR-75-1 [20]; 4-OH-tamoxifen in medium 0 µM) [nM]	relative IC50 (ZR-75-1 [20]; 4-OH-tamoxifen in medium 1 µM) [nM]
4130	3390	3770	4050	2890	3910	3780	3860	4090	3840	CCCCCCCCc1ccc(CCC(N)(CO)CO)cc1 [Fingolimod]	4.13	4.99	4.44	4.21	0.0112	5.74	3.17	2.83	2.59	2.91	4.24	2.18	2.69	1.58	2.36	3370	3490	3930	3710
80.2	155	53.6	78	86.8	189	498	91.9	1600		O=C(Cc1ccc(-c2ccc(OCCN3CCOCC3)cc2)cn1)NCc1ccccc1 [KX2-391]	22	19.7	12.3	21.8	0	11.2	10.5	10.6	11.3	2.76	4.36	3.06	4.76	11.5	4.21	2190	1110	53.1	779
17.1	22	19.7	10.6	28.7	35.2	47.5	87.6	44.7	40.8	Cc1[nH]c2ccccc2c1CCNCc1ccc(/C=C/C(=O)NO)cc1 [Panobinostat]	19.8	17.2	17.8	23.3	1.73	16.3	15.2	12.7	8.64	15.5	15.9	5.02	7.47	8.15	4.19	64.7	49.6	32.7	81.7
1190			1250	939	1350	768	850	3240		CC(C)C[C@@H](C(=O)N[C@H](C(=O)OC1CCCC1)c1ccccc1)[C@H](O)C(=O)NO [Tosedostat (CHR 2797)]	3.46	1.07	4	5.75	0	3.93	3.62	5.48	5.12	1.5	0.354	2.61	5.85	4.86	3.37	829	242		
